Reference: paper PMC7414031, “Correlation between hemolytic activity, cytotoxicity and systemic in vivo toxicity of synthetic antimicrobial peptides” (Scientific Reports, 2020)
Converted amounts (≈) assume the structure as drawn. Square brackets hold non-standard residues; d marks the D form. Peptide text beside a SMILES is read from it. N(1-naphthylmethyl)Gly = O=C(O)CNCc1cccc2ccccc12; 2Nal = N[C@@H](Cc1ccc2ccccc2c1)C(=O)O; Nphe = O=C(O)CNCc1ccccc1; NBuGly = CCCCNCC(=O)O; Nlys = NCCCCNCC(=O)O

Legend:
[1] = test system: canine erythrocytes; assay: in vitro; format: cell-based, dog; settings: for IC10 haemolysis: canine erythrocytes; for IC50: red cells of canine
Description: (§1) The haemolytic activity of the 24 structurally related peptides (Table 1) was evaluated in erythrocytes from four different species (human, canine, bovine and rat) employing standard methodology. The subsequent release of haemoglobin was used to assess haemolytic activity as function of peptide and peptidomimetic concentration, with concentrations ranging from 0.15 to 150 µM (Presented in whole in Supplementary information Table S1–S4).
(§2) Human and rat (Sprague–Dawley) blood samples were purchased by Bioreclamation IVT (Westbury, NY, USA), collected in tubes containing heparin as anticoagulant and stored at 4 °C before use. Dog and bovine whole blood was collected from in-house animals at Zoetis Animal Health, Kalamazoo, Michigan and stored at 4 °C in tubes containing heparin as anticoagulant. 10 mL of each whole blood sample were centrifuged at 1,500 × g for 5 min and the resulting plasma fraction was removed from the samples. The pellets were washed with an equal volume (10 mL) of saline, mixing by inversion. The centrifuging and washing steps were repeated 5 times. After the last washing step, a volume of PBS was added, and the resulting samples were diluted 1:10 with PBS to yield an RBC concentration of ~ 5 × 10^8 RBC/mL. The assay was performed in a 384-well polypropylene microplate (Greiner 784201, Greiner Bio-One International, GMBH) through a Bravo Liquid Handling Platform 384 system (Agilent Technologies, Santa Clara, CA, USA) according to the previously published procedures. The compounds were tested in serial 1:1 dilutions in PBS, with final concentrations ranging from 150 to 1.2 µM. Melittin was used as reference lytic peptide. 1% TritonX100 and PBS were used as positive and negative (diluent) controls, respectively. The final concentrations were obtained by adding to the wells 7 µL of each solution, melittin or PBS, followed by 63 µL of RBCs to each well. The plate was sealed, shaken on a plate shaker for 20 s, incubated for one hour at 37 °C. Finally, it was centrifuged at 1,500 × g for 5 min at room temperature. 60 µL of supernatants were removed from all plate wells via a Bravo 384 robot and transferred to a flat-bottomed 384-well plate (Greiner UV-Star #7810801, Greiner Bio-One International, GMBH). The plate was centrifuged at 1,000 g for 1 min to remove air bubbles and optical density was measured at 405 nm using a plate reader. Percentage of haemolysis was calculated with the following equation: %haemolysis=(absorbance of test sample)-absorbance of diluent/absorbance of positive control-absorbance of diluent×100.

[2] = in vitro; format: cell-based, dog; settings: dog
Description: as §1, §2

[3] = test system: Staphylococcus aureus; parameters: method as in PMID 30842436; settings: cited from earlier work
[4] = test system: human erythrocytes; assay: in vitro; format: cell-based; settings: for IC10 haemolysis: human erythrocytes; for IC50: red cells of human
Description: as §1, §2

[5] = in vitro; format: cell-based, human; settings: human
Description: as §1, §2

[6] = in vitro; format: cell-based, bovine; settings: bovine
Description: as §1, §2

[7] = test system: Staphylococcus pseudintermedius; settings: cited from earlier work
[8] = test system: Pseudomonas aeruginosa; parameters: method as in PMID 30842436; settings: cited from earlier work
[9] = test system: rat erythrocytes; assay: in vitro; format: cell-based, rat (Sprague–Dawley); settings: for IC10 haemolysis: rat erythrocytes; for IC50: red cells of rat
Description: as §1, §2

[10] = in vitro; format: cell-based, rat (Sprague–Dawley); settings: Sprague-Dawley, rat
Description: as §1, §2

[11] = test system: bovine erythrocytes; assay: in vitro; format: cell-based; settings: bovine erythrocytes
Description: as §1, §2

Structure (SMILES) | IC10 haemolysis [1] [µM] | IC50 [1] [µM] | hemolysis at 1 h, 150 µM [2] [%] | MIC against Staphylococcus aureus [3] [µg/mL] | IC10 haemolysis [4] [µM] | IC50 [4] [µM] | hemolysis at 1 h, 150 µM [5] [%] | hemolysis at 1 h, 150 µM [6] [%] | MIC against Staphylococcus pseudintermedius [7] [µg/mL] | MIC against Pseudomonas aeruginosa [8] [µg/mL] | IC10 haemolysis [9] [µM] | IC50 [9] [µM] | hemolysis at 1 h, 150 µM [10] [%] | IC10 haemolysis [11] [µM] | Haemolytic activity (in words) [4] | Haemolysis at 80 µM (in words) [1] | Haemolysis at 80 µM (in words) [4] | Haemolysis at 80 µM (in words) [9]
CC(C)C[C@@H](NC(=O)[C@H](CCCCN)NC(=O)[C@@H](N)CCCCN)C(=O)N[C@@H](CCCCN)C(=O)N[C@H](Cc1cccc2ccccc12)C(=O)N[C@H](Cc1ccccc1)C(=O)N[C@H](Cc1cccc2ccccc12)C(N)=O [Compound 10, Lys-Lys-Leu-Lys-(1-Nal)Ala-Phe-(1-Nal)Ala] (HELM PEPTIDE1{K.K.[dL].K.[O=C([C@@H](Cc1cccc2ccccc12)N[*:1])[*:2]].[dF].[O=C([C@@H](Cc1cccc2ccccc12)N[*:1])[*:2]].[am]}$$$$V2.0) | 43.4 | > 150 | 36.3 | 16 (≈ 15.1 µM) | > 150 | > 150 | < 8 | < 8 | 4 to 8 | 16 to 32 | > 150 | > 150 | < 8 | – | – | – | – | –
CC(C)C[C@@H](NC(=O)[C@H](CCCCN)NC(=O)[C@@H](Cc1ccc2ccccc2c1)NC(=O)[C@@H](Cc1ccccc1)NC(=O)[C@H](N)Cc1ccc2ccccc2c1)C(=O)N[C@@H](CCCCN)C(=O)N[C@@H](CCCCN)C(N)=O [Compound 3, (2-Nal)Ala-Phe-(2-Nal)Ala-Lys-Leu-Lys-Lys] (HELM PEPTIDE1{[N[C@H](Cc1ccc2ccccc2c1)C(=O)[*:2]].[dF].[O=C([C@@H](Cc1ccc2ccccc2c1)N[*:1])[*:2]].K.[dL].K.K.[am]}$$$$V2.0) | 118.3 | > 150 | 10.5 | 32 to 64 | > 150 | > 150 | < 8 | < 8 | 16 (≈ 15.1 µM) | > 64 | > 150 | > 150 | < 8 | – | – | – | – | –
CCCC[C@H](NC(=O)[C@H](CCCCN)NC(=O)[C@H](CCCCN)NC(=O)[C@@H](N)CCCCN)C(=O)N[C@@H](Cc1ccc2ccccc2c1)C(=O)N[C@@H](Cc1ccc(O)cc1)C(=O)N[C@@H](Cc1ccc2ccccc2c1)C(N)=O [Compound 22, Lys-Lys-Lys-Nle-(2-Nal)Ala-Tyr-(2-Nal)Ala] (HELM PEPTIDE1{K.K.K.[Nle].[O=C([C@H](Cc1ccc2ccccc2c1)N[*:1])[*:2]].Y.[O=C([C@H](Cc1ccc2ccccc2c1)N[*:1])[*:2]].[am]}$$$$V2.0) | 30.9 | 71.2 | 83 | 64 (≈ 59.7 µM) | 88.3 | > 150 | 23.7 | < 8 | 2 to 4 | 64 (≈ 59.7 µM) | 83.0 | > 150 | 24.2 | – | – | – | – | –
CC(C)C[C@H](NC(=O)[C@H](CCCCN)NC(=O)[C@H](Cc1ccc2ccccc2c1)NC(=O)[C@H](Cc1ccccc1)NC(=O)[C@@H](N)Cc1ccc2ccccc2c1)C(=O)N[C@@H](CCCCN)C(=O)N[C@@H](CCCCN)C(N)=O [Compound 13, (2-Nal)Ala-Phe-(2-Nal)Ala-Lys-Leu-Lys-Lys] (HELM PEPTIDE1{[N[C@@H](Cc1ccc2ccccc2c1)C(=O)[*:2]].F.[O=C([C@H](Cc1ccc2ccccc2c1)N[*:1])[*:2]].K.L.K.K.[am]}$$$$V2.0; N-terminus assumed) | 27.1 | > 150 | 27.4 | 16 (≈ 15.1 µM) | 44.2 | 136 | 55.3 | 17.6 | 4 to 8 | 64 (≈ 60.6 µM) | > 150 | > 150 | < 8 | 96.7 | – | – | – | –
CCCCN(CC(=O)N[C@@H](CCCCN)C(=O)N(CC(=O)N(CC(=O)N(CC(N)=O)Cc1cccc2ccccc12)Cc1ccccc1)Cc1cccc2ccccc12)C(=O)[C@H](CCCCN)NC(=O)[C@@H](N)CCCCN [Compound 14, Lys-Lys-(N-Bu)Gly-Lys-(N1-Nal)Gly-(N-Phe)Gly-(N1-Nal)Gly] (H-KK[NBuGly]K[N(1-naphthylmethyl)Gly][Nphe][N(1-naphthylmethyl)Gly]-NH2) | 26.23 | > 150 | 28.1 | 8 to 16 | 54.0 | 118 | 66.4 | 13.9 | 4 (≈ 3.79 µM) | 32 (≈ 30.3 µM) | 93.1 | > 150 | 31.6 | 123.9 | amongst the top five most haemolytic compounds | – | – | –
CC(C)C[C@H](NC(=O)CN(CCCCN)C(=O)CN(CCCCN)C(=O)CNCCCCN)C(=O)N[C@@H](Cc1ccc2ccccc2c1)C(=O)N[C@@H](Cc1ccccc1)C(=O)N[C@@H](Cc1ccc2ccccc2c1)C(N)=O [Compound 23, N-Lys-N-Lys-N-Lys-Leu-(2-Nal)Ala-Phe-(2-Nal)Ala] (H-[Nlys][Nlys][Nlys]L[2Nal]F[2Nal]-NH2) | 43.3 | > 150 | 35.1 | 32 (≈ 30.3 µM) | 98.7 | > 150 | 35.9 | 11.1 | 2 to 4 | 32 (≈ 30.3 µM) | > 150 | > 150 | < 8 | 145.8 | not highly lytic | – | – | –
CC(C)C[C@H](NC(=O)[C@H](CCCCN)NC(=O)[C@H](CCCCN)NC(=O)[C@@H](N)CCCCN)C(=O)N[C@@H](Cc1cccc2ccccc12)C(=O)N[C@@H](Cc1ccc(O)cc1)C(=O)N[C@@H](Cc1cccc2ccccc12)C(N)=O [Compound 19, Lys-Lys-Lys-Leu(1-Nal)Ala-Tyr-(1-Nal)Ala] (HELM PEPTIDE1{K.K.K.L.[O=C([C@H](Cc1cccc2ccccc12)N[*:1])[*:2]].Y.[O=C([C@H](Cc1cccc2ccccc12)N[*:1])[*:2]].[am]}$$$$V2.0) | 13.2 | 20.8 | 101 | > 64 | 13.5 | 51.1 | 82.7 | < 8 | – | > 64 | 45.0 | 74.9 | 101 | – | – | near total haemolysis | near total haemolysis | near total haemolysis
CC(C)C[C@@H](NC(=O)[C@H](CCCCN)NC(=O)[C@H](CCCCN)NC(=O)[C@@H](N)CCCCN)C(=O)N[C@H](Cc1ccc2ccccc2c1)C(=O)N[C@H](Cc1ccccc1)C(=O)N[C@H](Cc1ccc2ccccc2c1)C(N)=O [Compound 12, Lys-Lys-Lys-Leu-(2-Nal)Ala-Phe-(2-Nal)Ala] (HELM PEPTIDE1{K.K.K.[dL].[O=C([C@@H](Cc1ccc2ccccc2c1)N[*:1])[*:2]].[dF].[O=C([C@@H](Cc1ccc2ccccc2c1)N[*:1])[*:2]].[am]}$$$$V2.0) | 29.3 | > 150 | 50.2 | 8 to 16 | 34.6 | > 150 | 43.5 | < 8 | 2 to 4 | 32 (≈ 30.3 µM) | 105.8 | > 150 | 17.9 | – | – | – | – | –
